Results from ChEMBL document CHEMBL1150946, “Antipruritic dinaphthofuran-7,12-dione derivatives from the pericarp of Impatiens balsamina” (J Nat Prod, 1998).
Calls of active or inactive are those of the source. The rule behind the calls is not given here.

System: Mus musculus
Assay: Antipruritic activity in ddY mouse assessed as inhibition of compound 48/80-induced nose scratching behavior at 10 mg/kg, po for 20 mins preincubated 24 hrs before compound 48/80 challenge
Format: functional, organism-based
Parameters: dose 10 mg/kg

SMILES | Activity
COc1c(O[C@@H]2O[C@H](CO)[C@@H](O)[C@H](O)[C@H]2O)c2ccccc2c2oc3c(c12)C(=O)c1ccccc1C3=O | Active
COC1=CC(=O)c2ccccc2C1=O | Active
